Our source for the EC50 values is patent US8618139B2, “Oxadiazole derivatives as sphingosine 1-phosphate (S1P) receptor modulators” (Allergan, Inc., priority 2010, dated 2013).

T1 sequence (P21453 whole entry): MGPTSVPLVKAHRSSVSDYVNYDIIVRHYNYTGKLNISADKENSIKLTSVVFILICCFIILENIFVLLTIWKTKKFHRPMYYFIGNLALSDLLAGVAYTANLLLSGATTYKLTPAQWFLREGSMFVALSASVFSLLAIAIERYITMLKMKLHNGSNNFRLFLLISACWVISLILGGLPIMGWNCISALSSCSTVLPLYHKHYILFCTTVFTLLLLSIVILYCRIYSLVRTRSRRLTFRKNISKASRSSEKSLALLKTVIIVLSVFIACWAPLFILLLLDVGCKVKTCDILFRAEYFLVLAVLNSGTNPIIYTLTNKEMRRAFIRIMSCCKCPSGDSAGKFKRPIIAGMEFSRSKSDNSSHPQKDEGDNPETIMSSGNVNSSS

This assay addresses T1, human S1P1 receptor (Homo sapiens, UniProt P21453).
T1 construct: expressed in transfected cells; membranes used
Kind of assay: GTP γ35S binding assay for S1P1 activity. In kind it is biochemical. The note with it: activity potency from GTP γ35S binding; membranes, test compounds 0.08 to 5,000 nM, 30 min at 25° C. On the procedure:
Compounds were synthesized and tested for S1P1 activity using the GTP γ^35S binding assay. These compounds may be assessed for their ability to activate or block activation of the human S1P1 receptor in cells stably expressing the S1P1 receptor.
GTP γ^35S binding was measured in the medium containing (mM) HEPES 25, pH 7.4, MgCl2 10, NaCl 100, dithitothreitol 0.5, digitonin 0.003%, 0.2 nM GTP γ^35S, and 5 μg membrane protein in a volume of 150 μl. Test compounds were included in the concentration range from 0.08 to 5,000 nM unless indicated otherwise. Membranes were incubated with 100 μM 5′-adenylylimmidodiphosphate for 30 min, and subsequently with 10 μM GDP for 10 min on ice. Drug solutions and membrane were mixed, and then reactions were initiated by adding GTP γ^35S and continued for 30 min at 25° C. Reaction mixtures were filtered over Whatman GF/B filters under vacuum, and washed three times with 3 mL of ice-cold buffer (HEPES 25, pH7.4, MgCl2 10 and NaCl 100). Filters were dried and mixed with scintillant, and counted for ^35S activity using a β-counter. Agonist-induced GTP γ^35S binding was obtained by subtracting that in the absence of agonist. Binding data were analyzed using a non-linear regression method. In case of antagonist assay, the reaction mixture contained 10 nM S1P in the presence of test antagonist at concentrations ranging from 0.08 to 5000 nM.
Background: Binding of GTPγS marks nucleotide exchange on a G protein.
`CNc1ncccc1-c1noc(C(SC2CCCCC2)c2cccc(C(F)(F)F)c2)n1` (stereo not shown) [Compound 6, 3-(5-((cyclohexylthio)(3-(trifluoromethyl)phenyl)methyl)-1,2,4-oxadiazol-3-yl)-N-methylpyridin-2-amine]: the midpoint of the response, the EC50, lay at 3010 nM.

In the case of `CNc1ncccc1-c1noc(C(Oc2ccc(C)cc2)c2ccccc2Cl)n1` (stereo not shown) [Compound 30, 3-(5-((2-chlorophenyl)(p-tolyloxy)methyl)-1,2,4-oxadiazol-3-yl)-N-methylpyridin-2-amine], the EC50 (usually the midpoint of the concentration-response curve) was 1920 nM.

`CNc1ncccc1-c1noc(C(Oc2ccc(C)c(C)c2)c2ccccc2Cl)n1` (stereo not shown) [Compound 38, 3-(5-((2-chlorophenyl)(3,4-dimethylphenoxy)methyl)-1,2,4-oxadiazol-3-yl)-N-methylpyridin-2-amine] showed an EC50 of 1650 nM.

For the molecule `CNc1ncccc1-c1noc(C(Nc2ccc(C)c(C)c2)c2ccccc2)n1` (stereo not shown) [Compound 10, 3-(5-(((3,4-dimethylphenyl)amino)(phenyl)methyl)-1,2,4-oxadiazol-3-yl)-N-methylpyridin-2-amine], the response was half-maximal at 2390 nM (EC50).

`CNc1ncccc1-c1noc(C(Oc2cccc(Cl)c2)c2ccccc2Cl)n1` (stereo not shown) [Compound 36, 3-(5-((3-chlorophenoxy)(2-chlorophenyl)methyl)-1,2,4-oxadiazol-3-yl)-N-methylpyridin-2-amine] gave an EC50 of 2730 nM.

`CNc1ncccc1-c1noc(C(Oc2ccc(C)c(C)c2)c2ccc(Cl)cc2)n1` (stereo not shown) [Compound 15, 3-(5-((4-chlorophenyl)(3,4-dimethylphenoxy)methyl)-1,2,4-oxadiazol-3-yl)-N-methylpyridin-2-amine] registered an EC50 of 509 nM.

Regarding `CNc1ncccc1-c1noc(C(Sc2ccc(OC)cc2)c2ccc(Cl)cc2)n1` (stereo not shown) [Compound 20, 3-(5-((4-chlorophenyl)((4-methoxyphenyl)thio)methyl)-1,2,4-oxadiazol-3-yl)-N-methylpyridin-2-amine], the midpoint of the response, the EC50, lay at 2560 nM.

In turn, `CNc1ncccc1-c1noc(C(Sc2ccc(C)c(C)c2)c2cccc(Br)c2)n1` (stereo not shown) [Compound 2, 3-(5-((3-bromophenyl)((3,4-dimethylphenyl)thio)methyl)-1,2,4-oxadiazol-3-yl)-N-methylpyridin-2-amine] returned a 50% effective concentration (EC50) of 650 nM.

`CNc1ncccc1-c1noc(C(Oc2ccc(C)cc2)c2cccc(Cl)c2)n1` (stereo not shown) [Compound 32, 3-(5-((3-chlorophenyl)(p-tolyloxy)methyl)-1,2,4-oxadiazol-3-yl)-N-methylpyridin-2-amine] came in with an EC50 of 1340 nM.

With `CNc1ncccc1-c1noc(C(Oc2ccc(C)c(C)c2)c2cccc(Cl)c2)n1` (stereo not shown) [Compound 7, 3-(5-((3-chlorophenyl)(3,4-dimethylphenoxy)methyl)-1,2,4-oxadiazol-3-yl)-N-methylpyridin-2-amine], the response was half-maximal at 1540 nM (EC50).

On to `CNc1ncccc1-c1noc(C(Oc2ccc(Cl)c(C)c2)c2ccc(Cl)cc2)n1` (stereo not shown) [Compound 21, 3-(5-((4-chloro-3-methylphenoxy)(4-chlorophenyl)methyl)-1,2,4-oxadiazol-3-yl)-N-methylpyridin-2-amine], for which the response was half-maximal at 2080 nM (EC50).

`CNc1ncccc1-c1noc(C(Oc2ccc(C)cc2)c2ccc(Cl)cc2)n1` (stereo not shown) [Compound 26, 3-(5-((4-chlorophenyl)(p-tolyloxy)methyl)-1,2,4-oxadiazol-3-yl)-N-methylpyridin-2-amine] came in with an EC50 of 3120 nM.

Take `CNc1ncccc1-c1noc(C(Oc2ccc(Cl)cc2)c2ccc(Cl)cc2)n1` (stereo not shown) [Compound 23, 3-(5-((4-chlorophenoxy)(4-chlorophenyl)methyl)-1,2,4-oxadiazol-3-yl)-N-methylpyridin-2-amine]: the EC50 stood at 2050 nM.

`CNc1ncccc1-c1noc(C(Nc2ccc(C)c(C)c2)c2cccc(Cl)c2)n1` (stereo not shown) [Compound 1, 3-(5-((3-chlorophenyl)((3,4-dimethylphenyl)amino)methyl)-1,2,4-oxadiazol-3-yl)-N-methylpyridin-2-amine]: it took 336 nM to reach a half-maximal effect (EC50).

Take `CNc1ncccc1-c1noc(C(Sc2ccc(C)c(C)c2)c2cccc(F)c2)n1` (stereo not shown) [Compound 3, 3-(5-(((3,4-dimethylphenyl)thio)(3-fluorophenyl)methyl)-1,2,4-oxadiazol-3-yl)-N-methylpyridin-2-amine]: a half-maximal response (EC50) required 368 nM.

`CNc1ncccc1-c1noc(C(Sc2ccc(C)cc2)c2ccc(Cl)cc2)n1` (stereo not shown) [Compound 18, 3-(5-((4-chlorophenyl)(p-tolylthio)methyl)-1,2,4-oxadiazol-3-yl)-N-methylpyridin-2-amine] registered an EC50 of 3190 nM.

Molecule `CNc1ncccc1-c1noc(C(Sc2ccc(C)c(C)c2)c2ccccc2Cl)n1` (stereo not shown) [Compound 9, 3-(5-((2-chlorophenyl)((3,4-dimethylphenyl)thio)methyl)-1,2,4-oxadiazol-3-yl)-N-methylpyridin-2-amine] came in with a concentration for a half-maximal effect (EC50) of 716 nM.

Regarding `CNc1ncccc1-c1noc(C(Sc2ccc(C)c(C)c2)c2ccc(Cl)cc2)n1` (stereo not shown) [Compound 22, 3-(5-((4-chlorophenyl)((3,4-dimethylphenyl)thio)methyl)-1,2,4-oxadiazol-3-yl)-N-methylpyridin-2-amine], the midpoint of the response, the EC50, lay at 241 nM.

Turning to `CNc1ncccc1-c1noc(C(Sc2ccc(C)cc2C)c2ccc(Cl)cc2)n1` (stereo not shown) [Compound 16, 3-(5-((4-chlorophenyl)((2,4-dimethylphenyl)thio)methyl)-1,2,4-oxadiazol-3-yl)-N-methylpyridin-2-amine], the EC50 turned out to be 2020 nM.

Consider `CNc1ncccc1-c1noc(C(SC2CCCCC2)c2ccc(Cl)cc2)n1` (stereo not shown) [Compound 17, 3-(5-((4-chlorophenyl)(cyclohexylthio)methyl)-1,2,4-oxadiazol-3-yl)-N-methylpyridin-2-amine], for which it took 550 nM to reach a half-maximal effect (EC50).

The molecule `CNc1ncccc1-c1noc(C(Sc2ccc(C)c(C)c2)c2cccc(Cl)c2)n1` (stereo not shown) [Compound 5, 3-(5-((3-chlorophenyl)((3,4-dimethylphenyl)thio)methyl)-1,2,4-oxadiazol-3-yl)-N-methylpyridin-2-amine] registered an EC50 of 214 nM.

Take `CNc1ncccc1-c1noc(C(Oc2cccc(C)c2)c2ccccc2Cl)n1` (stereo not shown) [Compound 35, 3-(5-((2-chlorophenyl)(m-tolyloxy)methyll)-1,2,4-oxadiazol-3-yl)-N-methylpyridin-2-amine]: the EC50 is 2140 nM.

As to `CNc1ncccc1-c1noc(C(Sc2ccoc2C)c2cccc(Cl)c2)n1` (stereo not shown) [Compound 13, 3-(5-((3-chlorophenyl)((2-methylfuran-3-yl)thio)methyl)-1,2,4-oxadiazol-3-yl)-N-methylpyridin-2-amine], the EC50 was found to be 1380 nM.

In turn, `CNc1ncccc1-c1noc(C(Sc2ccc(C)c(C)c2)c2ccc(Cl)c(Cl)c2)n1` (stereo not shown) [Compound 4, 3-(5-((3,4-dichlorophenyl)((3,4-dimethylphenyl)thio)methyl)-1,2,4-oxadiazol-3-yl)-N-methylpyridin-2-amine] returned an EC50 of 638 nM.

In the case of `CNc1ncccc1-c1noc(C(Sc2ccccc2)c2ccccc2)n1` (stereo not shown) [Compound 27, N-methyl-3-(5-(phenyl(phenylthio)methyl)-1,2,4-oxadiazol-3-yl)pyridin-2-amine], it took 1320 nM to reach a half-maximal effect (EC50).
